Measured values from patent US9540358B2, “Tricyclic compounds as anticancer agents” (ICAHN SCHOOL OF MEDICINE AT MOUNT SINAI, priority 2011, dated 2017).

tested on: H1650 lung cancer cells; test: Cell viability assay (MTT, IC50 determination); format: cell-based; details: 48 hours after drug treatment, MTT
Protocol: 89(22): p. […] H1650 lung cancer cells were plated at 150,000 cells per well in a 12 well plate. Twenty-four hours after plating, cells were treated as described with increasing concentrations of drug and control. Forty-eight hours after drug treatment, cells were treated with 100 μL of 3-(4,5-Dimethylthiazol-2-yl)-2,5-diphenyltetrazolium bromide (MTT) and incubated for 2 hours at 37 C. The MTT solution was subsequently replaced with 300 μL of n-propyl alcohol and re-aliquoted to a 96 well plates. Spectrophotometric analysis of each solution was performed using a 96 well plate reader at 600 nm in triplicate.

Row | SMILES | IC50 (Cell Viability Data)
1 | O=S(=O)(NCCCN1c2ccccc2CCc2ccccc21)c1cnc(Cl)c(Br)c1 [Example 81, 5-bromo-6-chloro-N-(3-(10,11-dihydro-5H-dibenzo[V]azepin-5-yl)propyl)pyridine-3-sulfonamide] | INACTIVE
2 | CC(=O)Nc1nc(C)c(S(=O)(=O)NCCCN2c3ccccc3CCc3ccccc32)s1 [Example 82, N-(5-(N-(3-(10,11-dihydro-5H-dibenzo[b,f]azepin-5-yl)propyl)sulfamoyl)-4-methylthiazol-2-yl)acetamide] | INACTIVE
3 | COC(=O)NCCN1c2ccccc2Sc2ccc(Cl)cc21 [Example 83] | INACTIVE
4 | O=S(=O)(NCCCN1c2ccccc2CCc2ccc(Cl)cc21)c1ccccc1OC(F)(F)F [Example 86] | INACTIVE

same assay, conditions: Homo sapiens, NCI-H1650, 48 hours after drug treatment, MTT

Row | SMILES | IC50 [µM]
5 | Nc1ccc2c(c1)N(CCCNS(=O)(=O)c1ccc(C(F)(F)F)cc1)c1ccccc1CC2 [Example 43, N-(3-(3-amino-10,11-dihydro-5H-dibenzo[b,f]azepin-5-yl)propyl)-4-(trifluoromethyl)benzenesulfonamide] | ~35
6 | [N-]=[N+]=Nc1ccc2c(c1)N(CCCNS(=O)(=O)c1ccc(C(F)(F)F)cc1)c1ccccc1CC2 [Example 44, N-(3-(3-azido-10,11-dihydro-5H-dibenzo[b,f]azepin-5-yl)propyl)-4-(trifluoromethyl)benzenesfulfonamide] | ~30
7 | O=S(=O)(NCCCN1c2ccccc2CCc2ccc(Cl)cc21)c1ccccc1 [Example 45, N-(3-(3-chloro-10,11-dihydro-5H-dibenzo[b,f]azepin-5-yl)propyl)benzenesulfonamide] | ~25
8 | O=S(=O)(NCCN1c2ccccc2Sc2ccccc21)c1ccc(OC(F)(F)F)cc1 [Example 46, N-(2-(10H-phenothiazin-10-yl)ethyl)-4-trifluoromethoxybenzenesulfonamide] | ~30
9 | O=S(=O)(NCCN1c2ccccc2Sc2ccccc21)c1ccc(Cl)cc1 [Example 47, N-(2-(10H-phenothiazin-10-yl)ethyl)-4-chlorobenzenesulfonamide] | ~30
10 | O=S(=O)(NCCC=C1c2ccccc2CCc2ccccc21)c1ccc(Cl)cc1 [Example 50, 4-Chloro-N-(3-(10,11-dihydro-5H-dibenzo[a,d][7]annulen-5-ylidene)propyl)benzenesulfonamide] | ~15
11 | O=S(=O)(NCCC=C1c2ccccc2CCc2ccccc21)c1ccc(OC(F)(F)F)cc1 [Example 51, N-(3-(10,11-dihydro-5H-dibenzo[a,d][7]annulen-5-ylidene)propyl)-4-(trifluoromethoxy)benzenesulfonamide] | ~20
12 | O=S(=O)(NCCCN1c2ccc(Cl)cc2CCc2cc(Cl)ccc21)c1ccc(Cl)cc1 [Example 52, 4-Chloro-N-(3-(2,8-dichloro-10,11-dihydro-5H-dibenzo[b,f]azepin-5-yl)propyl)benzenesulfonamide] | ~10
13 | O=S(=O)(NCCCN1c2ccc(Cl)cc2CCc2cc(Cl)ccc21)c1ccc(OC(F)(F)F)cc1 [Example 53, 4-Trifluoromethoxy-N-(3-(2,8-dichloro-10,11-dihydro-5H-dibenzo[b,f]azepin-5-yl)propyl)benzenesulfonamide] | ~10
14 | O=S(=O)(NCCCN1c2ccccc2CCc2ccc(Cl)cc21)c1cccc(OC(F)(F)F)c1 [Example 54, N-(3-(3-chloro-10,11-dihydro-5H-dibenzo[b,f]azepin-5-yl)propyl)-3-(trifluoromethoxy)benzenesulfonamide] | ~15
15 | O=S(=O)(NCCNC1c2ccccc2CCc2ccccc21)c1ccc(Cl)cc1 [Example 55, 4-Chloro-N-(2-((10,11-dihydro-5H-dibenzo[a,d][7]annulen-5-yl)amino)ethyl)benzenesulfonamide] | ~25
16 | O=S(=O)(NCCNC1c2ccccc2CCc2ccccc21)c1ccc(OC(F)(F)F)cc1 [Example 56, 4-Trifluoromethoxy-N-(2-((10,11-dihydro-5H-dibenzo[a,d][7]annulen-5-yl)amino)ethyl)benzenesulfonamide] | ~25
17 | O=S(=O)(NCC(O)CN1c2ccccc2CCc2ccc(Cl)cc21)c1ccc(Cl)cc1 (centres unmarked) [Example 57, 4-Chloro-N-(3-(3-chloro-10,11-dihydro-5H-dibenzo[b,f]azepin-5-yl)-2-hydroxypropyl)benzenesulfonamide] | ~10
18 | O=S(=O)(NCC(O)CN1c2ccccc2CCc2ccc(Cl)cc21)c1ccc(OC(F)(F)F)cc1 (centres unmarked) [Example 58, 4-Trifluoromethoxy-N-(3-(3-chloro-10,11-dihydro-5H-dibenzo[b,f]azepin-5-yl)-2-hydroxypropyl)benzenesulfonamide] | ~5
19 | O=S(=O)(NCC(O)CN1c2ccccc2CCc2ccccc21)c1ccc(Cl)cc1 (centres unmarked) [Example 59, 4-Chloro-N-(3-(10,11-dihydro-5H-dibenzo[b,f]azepin-5-yl)-2-hydroxypropyl)benzenesulfonamide] | ~25
20 | O=S(=O)(NCCCN1c2ccccc2CCc2ccc(Cl)cc21)c1cc(Cl)c(Cl)s1 [Example 61, 4,5-dichloro-N-(3-(3-chloro-10,11-dihydro-5H-dibenzo[b,f]azepin-5-yl)propyl)thiophene-2-sulfonamide] | ~20
21 | O=S(=O)(NCCCN1c2ccccc2CCc2ccc(Cl)cc21)c1cc(Cl)sc1Cl [Example 62, 2,5-dichloro-N-(3-(3-chloro-10,11-dihydro-5H-dibenzo[b,f]azepin-5-yl)propyl)thiophene-3-sulfonamide] | ~25

Row | SMILES | IC50 [µM]
22 | O=C(CNS(=O)(=O)c1ccc(OC(F)(F)F)cc1)CN1c2ccccc2CCc2ccccc21 [Example 64, N-(3-(10,11-dihydro-5H-dibenzo[b,f]azepin-5-yl)-2-oxopropyl)-4-(trifluoromethoxy)benzenesulfonamide] | ~35
23 | N#CC(CNS(=O)(=O)c1ccc(OC(F)(F)F)cc1)CN1c2ccccc2CCc2ccccc21 (centres unmarked) [Example 65, N-(2-cyano-3-(10,11-dihydro-5H-dibenzo[b,f]azepin-5-yl)propyl)-4-(trifluoromethoxy)benzenesulfonamide] | ~15
24 | CC(CNS(=O)(=O)c1ccc(OC(F)(F)F)cc1)CN1c2ccccc2CCc2ccccc21 (centres unmarked) [Example 67, N-(3-(10,11-dihydro-5H-dibenzo[b,f]azepin-5-yl)-2-methylpropyl)-4-(trifluoromethoxy)benzenesulfonamide] | ~20
25 | CC(CNS(=O)(=O)c1ccc(Cl)cc1)CN1c2ccccc2CCc2ccccc21 (centres unmarked) [Example 68, 4-Chloro-N-(3-(10,11-dihydro-5H-dibenzo[b,f]azepin-5-yl)-2-methylpropyl)benzenesulfonamide] | ~20
26 | O=S(=O)(NCCCN1c2ccccc2CCc2cccc(Cl)c21)c1ccc(OC(F)(F)F)cc1 [Example 69, N-(3-(4-chloro-10,11-dihydro-5H-dibenzo[b,f]azepin-5-yl)propyl)-4-(trifluoromethoxy)benzenesulfonamide] | ~20
27 | O=S(=O)(NCCCN1c2ccccc2CCc2cccc(Cl)c21)c1ccc(Cl)cc1 [Example 70, 4-Chloro-N-(3-(4-chloro-10,11-dihydro-5H-dibenzo[b,f]azepin-5-yl)propyl)benzenesulfonamide] | ~20
28 | N#Cc1ccc(S(=O)(=O)NCCC=C2c3ccccc3CCc3ccccc32)cc1 [Example 71, N-(3-(10,11-dihydro-5H-dibenzo[a,d][7]annulen-5-ylidene)propyl)-4-cyanobenzenesulfonamide] | 25
29 | O=S(=O)(NCCC=C1c2ccccc2CCc2ccccc21)c1ccc(F)cc1 [Example 72, N-(3-(10,11-dihydro-5H-dibenzo[a,d][7]annulen-5-ylidene)propyl)-4-fluorobenzenesulfonamide] | 20
30 | O=S(=O)(NC1CCC(N2c3ccccc3CCc3ccccc32)C1)c1ccc(OC(F)(F)F)cc1 (centres unmarked) [Example 76, N-(3-(10,11-dihydro-5H-dibenzo[b,f]azepin-5-yl)cyclopentyl)-4-(trifluoromethoxy)benzenesulfonamide] | 20
31 | O=S(=O)(NC1CCCC(=C2c3ccccc3CCc3ccccc32)C1)c1ccc(OC(F)(F)F)cc1 (centres unmarked) [Example 77, N-(3-(10,11-dihydro-5H-dibenzo[a,d][7]annulen-5-ylidene)cyclohexyl)-4-(trifluoromethoxy)benzenesulfonamide] | 15
32 | O=S(=O)(NC1CCCC(=C2c3ccccc3CCc3ccccc32)C1)c1ccc(Cl)cc1 (centres unmarked) [Example 78, N-(3-(10,11-dihydro-5H-dibenzo[a,d][7]annulen-5-ylidene)cyclohexyl)-4-chlorobenzenesulfonamide] | 15
33 | O=S(=O)(NC1CCC(=C2c3ccccc3CCc3ccccc32)CC1)c1ccc(OC(F)(F)F)cc1 (centres unmarked) [Example 79, N-(4-(10,11-dihydro-5H-dibenzo[a,d][7]annulen-5-ylidene)cyclohexyl)-4-(trifluoromethoxy)benzenesulfonamide] | ~20
34 | O=S(=O)(NC1CCC(=C2c3ccccc3CCc3ccccc32)CC1)c1ccc(Cl)cc1 (centres unmarked) [Example 80, N-(4-(10,11-dihydro-5H-dibenzo[a,d][7]annulen-5-ylidene)cyclohexyl)-4-chlorobenzenesulfonamide] | ~20
35 | O=S(=O)(NCC(O)CN1c2ccccc2Sc2ccccc21)c1ccc(OC(F)(F)F)cc1 (centres unmarked) [Example 84] | ~25
36 | O=S(=O)(NCC(O)CN1c2ccccc2Sc2ccccc21)c1ccc(Cl)cc1 (centres unmarked) [Example 85] | ~15
37 | CS(=O)(=O)Nc1ccc2c(c1)N(CCCNS(=O)(=O)c1ccc(OC(F)(F)F)cc1)c1ccccc1CC2 [Example 87] | ~15
38 | CC(=O)Nc1ccc(S(=O)(=O)NCCCN2c3ccccc3CCc3ccc(Cl)cc32)cc1 [Example 88] | ~20
